Experimental data as given in patent US9839681B1, “Size tunable microbial mimetics for immunotherapy of cancer” (priority 2017, dated 2017).

Test system: Human peripheral blood mononuclear cells (PBMCs)
Assay: Induced cytokine secretion by PBMCs exposed for 24 hours, ELISA
Format: cell-based
Details: 25 μg/mL, 24 hours, 300,000 PBMCs per well
Description: FIG. 10 is bar graph showing the induced secretion of IL-6 by PBMCs exposed to PolyIC, RNA248, DNA4, DNA10, PolyIC complexed with SEQ. ID NO. 4 (CAL2), RNA248 complexed with SEQ. ID NO. 4, DNA4 complexed with SEQ. ID NO. 4, DNA10 complexed with SEQ. ID NO. 4, DNA4 and RNA248 complexed with SEQ. ID NO. 4, Pam(2)CSK4-conjugated SEQ. ID NO. 4 complexed with DNA4 and SEQ. ID NO. 4 alone. Each well contained ˜300,000 fresh PBMCs in a total volume of 100 μL of RPMI medium. Solutions of SEQ. ID NO. 4, PolyIC, DNA4, DNA10, Pam(2)CSK4-conjugated SEQ. ID NO. 4 were all pre-mixed to concentrations of 50 ug/mL (for each peptide reagent) and then added to wells in volumes of 100 uL, such that each well contained a 200 uL volume of PBMCs and reagents. Wells were run in triplicate and the mean value is indicated.
A series of in vitro experiments was conducted to characterize the immune-stimulating properties of the MM and their sub-components. Human peripheral blood mononuclear cells (PBMCs) were exposed to a MM containing SEQ. ID NO. 4 and its individual molecular sub-components for 24 hours. For reference, the PBMCs were separately exposed to PolyIC. After this time, the induced secretion of following cytokines by PBMCs was measured: interleukin-6 (IL-6), interleukin-10 (IL-10), interleukin-12 (IL-12), interleukin-15 (IL-15), tumor necrosis factor alpha (TNF-alpha), interferon-alpha (IFN-alpha), and interferon-gamma (IFN-gamma). Experiments were conducted as follows. 150 mL of blood was supplied by a human volunteer and PBMCs were isolated by Ficoll-Paque gradient centrifugation immediately after venipuncture. PBMCs were incubated for 24 hours at 37° C./5% CO2 in 96-well plates, with 300,000 PBMCs per well in a 200 μL medium containing 49% RPMI-1640/49% PBS/1% L-glutamine/1% penicillin-streptomycin and the components in Table 3 at a concentration of 25 μg/mL. All cytokines were measured in triplicate.
After 24 hours, the supernatant from each well was isolated using centrifugation at 3000 g and immediately thereafter cytokines were measured using ELISA kits from Genway Biotech (San Diego, Calif.) and Origene (Rockville, Md.). Per ELISA kit instructions, 100 μL of supernatant was used for each readout. The results are provided in FIGS. 10-16, where the mean of each measurement is provided. (In no instance did the standard deviation exceed 30%.)

Row | Substance | cytokine secretion overall (seven cytokines measured) | induced secretion of IFN-alpha | induced secretion of IL-12 | induced secretion of IL-15
1 | 5′-TCGTCGGTTTCGGCGCGCGCCG-3′ (DNA, all phosphorothioate, methylation of C not given here) [DNA4] | minimal cytokine secretion | somewhat immunogenic | does not induce secretion of high amounts | does not induce secretion of high amounts
2 | 5′-TTCGGCGCGCGCGCGCGCGCGCCGTT-3′ (DNA, all phosphorothioate, methylation of C not given here) [DNA10] | minimal cytokine secretion |  |  | 
3 | 5′-guuggugguugugugagcgu-3′ (GUUGGUGGUUGUGUGAGCGU; listed as RNA, chemistry not fully specified) [RNA248] | minimal cytokine secretion |  |  | 
4 | RRHRKRRLSTCMLGTYTQDFNKFHTFPQTAI (Linker Sequence + synthetic peptide corresponding to calcitonin) [CAL2] | very minimal cytokine secretion |  |  | 
